Laboratory results published in patent publication US20060040338A1, “Pharmacological profiling of drugs with cell-based assays” (Odyssey Thera, Inc., priority 2004, published 2006).
“Also recorded” adds a separate entry of the source.

How the values were obtained:
Format in all cases: cell-based, human
phospho-Hsp27 = phospho-Hsp27 immunofluorescence high-content assay; conditions: HEK293T cells; for Hsp27 phosphorylation (p38 pathway), agent alone: anisomycin 10 micrograms/ml 10 min, hEGF 100 ng/ml 5 min; for effect on EGF-induced Hsp27 phosphorylation: drug 90 min (PD98059 20 micromolar, SB203580 25 micromolar), 100 ng/ml hEGF during last 5 min
Procedure: (§1) We assessed the effects of the above-mentioned compounds on the three pathways and used the results to construct pharmacological profiles for the agents. Specifically we assessed changes in the phosphorylation status of the pathway ‘sentinels’ by constructing high-content, immunofluorescence assays using phospho-specific antibodies targeted to the downstream proteins in the pathways of interest. Human cells (HEK293) were treated with drugs and the phosphorylation status of the three downstream proteins was assessed in the absence or presence of epidermal growth factor (EGF). Cells were then fixed and probed with antisera generated against the phosphorylated forms of CREB (S133), ERK1/2 (phospho T*EY*), or phospho Hsp27 (S78/S82). The ERK1/2 antibodies specifically recognize the MAPK/ERK1 and MAPK/ERK2 protein kinases only when they are phosphorylated on Threonine 202 and Tyrosine 204 in the activation loop. […] Changes in the level and sub-cellular localization of a phosphorylated protein following treatment with a drug would indicate a functional connection between the drug and the pathway of interest.
(§2) Details of the methods used are as follows. HEK293T cells were seeded in black-walled, poly-lysine coated 96-well plates (Greiner) at a density of 30,000/well. After 24 hours, cells in duplicate wells were treated with combinations of different drugs and stimulus as follows: (a) 2 micromolar isoproterenol or 1 micromolar forskolin for 15 min.; (b) 25 micromolar SB203580 or vehicle (DMSO) for 90 minutes and 10 micrograms/ml anisomycin added to the cells during the last 10 min.; (c) 20 microolar PD98059, 25 micromolar SB203580, 5 microM 17-AAG or vehicle alone for 90 min. (d) as for (c), but with 100 ng/ml hEGF added to the cells during the last 5 min of drug treatment. The drugs were purchased from Calbiochem and hEGF was from Roche. Four sets of cells treated as described were prepared. The cells were rinsed once with PBS and fixed with 4% formaldehyde for 10 min. The cells were subsequently permeabilized with 0.25% Triton X-100 in PBS and incubated with 3% BSA for 30 min to block non-specific antibody binding. Each of the 4 sets of identically treated cells were then incubated with rabbit antibodies against phosphorylated CREB (Ser133), Hsp27 (Ser82), or pERK (T202/Y204) (Cell Signaling Technology, Inc.). Control wells were incubated with bovine serum albumin (BSA) in PBS. The cells were rinsed with PBS and incubated with Alexa488 conjugated goat anti-rabbit secondary antibody (Molecular Probes). Cell nuclei were stained with Hoechst33342 (Molecular Probes).
(§3) Images were acquired using Discovery-1 High Content Imaging System (Molecular Devices). Background fluorescence due to nonspecific binding by the secondary antibody was established with the use of cells that were incubated with BSA/PBS and without primary antibodies.
(§4) Raw images in 16-bit grayscale TIFF format were analyzed using ImageJ API/library (http://rsb.info.nih.gov/ij/, NIH, MD). First, images from the fluorescence channels (Hoechst and Alexa 488) were normalized using the ImageJ built-in rolling-ball algorithm [S. R. Sternberg, Biomedical image processing. Computer, 16(1), January 1983]. Next a threshold was established to separate the foreground from background. An iterative algorithm based on Particle Analyzer from ImageJ is applied to the thresholded Hoechst channel image (HI) to obtain the total cell count. The nuclear region of a cell (nuclear mask) is also derived from the thresholded HI. […]

phospho-ERK = phospho-ERK (T202/Y204) immunofluorescence high-content assay; conditions: HEK293T cells; for ERK/MAP kinase phosphorylation, agent alone: isoproterenol 2 micromolar or forskolin 1 micromolar 15 min, anisomycin 10 micrograms/ml 10 min, hEGF 100 ng/ml 5 min; for effect on EGF-stimulated ERK phosphorylation: drug 90 min (PD98059 20 micromolar, SB203580 25 micromolar, 17-AAG 5 microM), 100 ng/ml hEGF during last 5 min
Procedure: as §1, §2, §3
as §4, with “HI. The positive particle mask is generated from the thresholded Alexa 488 image (YI). To calculate the global background (gBG), a histogram was obtained from the un-thresholded Alexa signal and the pixel intensity of the lowest intensity peak was identified as gBG. The Hoechst mask and Alexa mask are overlapped to define the correlated sub-regions of the cell. All means were corrected for the corresponding gBG.” for “HI.”

phospho-CREB = phospho-CREB (S133) immunofluorescence high-content assay; conditions: HEK293T cells; for phosphorylation of CREB (phospho-CREB intensity), agent alone / subcellular distribution of phospho-CREB: isoproterenol 2 micromolar or forskolin 1 micromolar 15 min, anisomycin 10 micrograms/ml 10 min, relative to untreated control; for phosphorylation of CREB (phospho-CREB intensity), agent alone: hEGF 100 ng/ml 5 min
Procedure: as §1, §2, §3
as §4, with “HI. The positive particle mask is generated from the thresholded Alexa 488 image (YI). To calculate the global background (gBG), a histogram was obtained from the un-thresholded Alexa signal and the pixel intensity of the lowest intensity peak was identified as gBG. The Hoechst mask and Alexa mask are overlapped to define the correlated sub-regions of the cell. All means were corrected for the corresponding gBG.” for “HI.”

| Compound | Hsp27 phosphorylation (p38 pathway), agent alone (phospho-Hsp27) | ERK/MAP kinase phosphorylation, agent alone (phospho-ERK) | phosphorylation of CREB (phospho-CREB intensity), agent alone (phospho-CREB) | subcellular distribution of phospho-CREB (phospho-CREB) | effect on EGF-stimulated ERK phosphorylation (phospho-ERK) | effect on EGF-induced Hsp27 phosphorylation (phospho-Hsp27) | effect on EGF-induced phospho-CREB (phospho-CREB; drug 90 min (PD98059 20 micromolar), 100 ng/ml hEGF during last 5 min) | effect on anisomycin-induced phospho-Hsp27 (phospho-Hsp27; SB203580 25 micromolar 90 min, 10 micrograms/ml anisomycin during last 10 min) |
| --- | --- | --- | --- | --- | --- | --- | --- | --- |
| COc1ccc(C[C@H]2NC[C@H](O)[C@H]2OC(C)=O)cc1 [anisomycin] | induced | no effect | little or no effect; also recorded: no effect | little or no effect | – | – | – | – |
| C=CCNC1=C2C[C@@H](C)C[C@H](OC)[C@H](O)[C@@H](C)/C=C(\C)[C@H](OC(N)=O)[C@@H](OC)/C=C\C=C(/C)C(=O)NC(=CC1=O)C2=O [17-AAG, 17-allylamino-17-demethoxygeldanamycin] | – | – | – | – | effective at reducing | – | – | – |
| COc1cccc(-c2cc(=O)c3ccccc3o2)c1N [PD98059] | – | – | – | – | significantly blocked | no effect | reduced | – |
| EGF: epidermal growth factor; hEGF from Roche, used as pathway stimulus | elicited p38 pathway activation | strongly stimulated | induced | – | – | – | – | – |
| C[S+]([O-])c1ccc(-c2nc(-c3ccc(F)cc3)c(-c3ccncc3)[nH]2)cc1 (centres unmarked) [SB203580, 4-(4-fluorophenyl)-2-(4-methylsulfinylphenyl)-5-(4-pyridyl)1H-imidazole] | – | – | – | – | no effect | blocked | – | completely blocked |
| CC(C)NCC(O)c1ccc(O)c(O)c1 (centres unmarked) [isoproterenol] | – | no effects | increased | predominantly nuclear pattern | – | – | – | – |
